Source: patent US20140081017A1, “Histone Deacetylase Inhibitors for Enhancing Activity of Antifungal Agents” (METHYLGENE INC., priority 2012, published 2014)
Converted amounts (≈) assume the structure as drawn. Where two headings read alike, the source gives them in different places.

Tests used:
Candida albicans = assay: Minimal Inhibitory Concentration (MIC) assay, broth microdilution per CLSI; type: cell-based; conditions: Candida albicans, read-out: Minimum Inhibitory Concentrations against Yeast Isolates, Candida albicans;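 note: two read times 24 hr and 48 hr of incubation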
Procedure, shortened: (§1)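 Read-out is visual: MIC is the lowest compound concentration preventing visible growth after approximately 24-48 hr at 35° C. Testing used CLSI microdilution in MOPS-buffered RPMI (pH 7.0) with serial 1:1 compound dilutions made in DMSO.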

Candida glabrata = assay: as above; type: cell-based; conditions: Nakaseomyces glabratus, read-out: Minimum Inhibitory Concentrations against Yeast Isolates, Candida glabrata;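 note: two read times 24 hr and 48 hr of incubation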
Procedure, shortened: as §1

Candida parapsilosis = assay: as above; type: cell-based; conditions: Lodderomyces parapsilosis, read-out: Minimum Inhibitory Concentrations against Yeast Isolates, Candida parapsilosis;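 note: two read times 24 hr and 48 hr of incubation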
Procedure, shortened: as §1

C. glabrata = assay: Checkerboard FIC assay in combination with fluconazole (MIC alone and in combination, FICI); type: cell-based, Candida glabrata; conditions: for FICI of combination resulting in fluconazole MIC of: 2 ug/mL / FICI of combination resulting in fluconazole MIC of: 4 ug/mL / FICI of combination resulting in fluconazole MIC of: 8 ug/mL: FICI calculated using a fluconazole MIC of 16 μg/mL; for FICI of combination resulting in fluconazole MIC of: 2 ug/mL (value in parenthesis) / FICI of combination resulting in fluconazole MIC of: 4 ug/mL (value in parenthesis) / FICI of combination resulting in fluconazole MIC of: 8 ug/mL (value in parenthesis): FICI using a fluconazole MIC of 128 μg/mL; for MIC: Nakaseomyces glabratus; for Multiple of compound MIC to synergize fluconazole MIC to 2 ug/mL / Multiple of compound MIC to synergize fluconazole MIC to 4 ug/mL / Multiple of compound MIC to synergize fluconazole MIC to 8 ug/mL: concentration in combination as multiple of the compound's MIC alone; for Multiple of compound MIC to synergize fluconazole MIC to 2 ug/mL: fluconazole MIC 2 ug/mL; for Multiple of compound MIC to synergize fluconazole MIC to 4 ug/mL: fluconazole MIC 4 ug/mL; for Multiple of compound MIC to synergize fluconazole MIC to 8 ug/mL: fluconazole MIC 8 ug/mL; for Concentration of Methylgene compound to synergize fluconazole MIC to 2 ug/mL / Concentration of Methylgene compound to synergize fluconazole MIC to 4 ug/mL / Concentration of Methylgene compound to synergize fluconazole MIC to 8 ug/mL: in combination with fluconazole; for Concentration of Methylgene compound to synergize fluconazole MIC to 2 ug/mL: fluconazole MIC lowered to 2 ug/mL; for Concentration of Methylgene compound to synergize fluconazole MIC to 4 ug/mL: fluconazole MIC lowered to 4 ug/mL; for Concentration of Methylgene compound to synergize fluconazole MIC to 8 ug/mL: fluconazole MIC lowered to 8 ug/mL
Procedure, shortened: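 A fluconazole synergy checkerboard was run against C. glabrata in MOPS-buffered RPMI (pH 7.0) for about 48 h at 35 °C. Each agent was diluted 2-fold, with one row and one column holding each agent alone for MIC determination. FICI was calculated from these MICs, using a 0.5 McFarland inoculum diluted 1:100 per CLSI.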

[1] = 24 hr reading (first value of cell 24 hr/48 hr)
[2] = 48 hr reading (second value of cell 24 hr/48 hr)
[3] = MIC of the example compound alone against C. glabrata in the checkerboard assay, approximately 48 hr, read-out: Methylgene MIC
[4] = test compound alone, C. glabrata, approx. 48 hr at 35° C., read-out: Compound MIC

MIC (Candida albicans; [1]) [µg/mL]	MIC (Candida albicans; [2]) [µg/mL]	MIC (Candida glabrata; [1]) [µg/mL]	MIC (Candida glabrata; [2]) [µg/mL]	MIC (Candida parapsilosis; [1]) [µg/mL]	MIC (Candida parapsilosis; [2]) [µg/mL]	FICI of combination resulting in fluconazole MIC of: 2 ug/mL (C. glabrata; C. glabrata)	FICI of combination resulting in fluconazole MIC of: 4 ug/mL (C. glabrata; C. glabrata)	FICI of combination resulting in fluconazole MIC of: 8 ug/mL (C. glabrata; C. glabrata)	FICI of combination resulting in fluconazole MIC of: 2 ug/mL (value in parenthesis) (C. glabrata; C. glabrata)	FICI of combination resulting in fluconazole MIC of: 4 ug/mL (value in parenthesis) (C. glabrata; C. glabrata)	FICI of combination resulting in fluconazole MIC of: 8 ug/mL (value in parenthesis) (C. glabrata; C. glabrata)	MIC (C. glabrata; [3]) [µg/mL]	MIC (C. glabrata; [4]) [µg/mL]	Multiple of compound MIC to synergize fluconazole MIC to 2 ug/mL (C. glabrata)	Multiple of compound MIC to synergize fluconazole MIC to 4 ug/mL (C. glabrata)	Multiple of compound MIC to synergize fluconazole MIC to 8 ug/mL (C. glabrata)	Concentration of Methylgene compound to synergize fluconazole MIC to 2 ug/mL (C. glabrata; C. glabrata) [µg/mL]	Concentration of Methylgene compound to synergize fluconazole MIC to 4 ug/mL (C. glabrata; C. glabrata) [µg/mL]	Concentration of Methylgene compound to synergize fluconazole MIC to 8 ug/mL (C. glabrata; C. glabrata) [µg/mL]	Compound
> 64	> 64	4 (≈ 8.41 µM)	16 (≈ 33.6 µM)	> 64	> 64	0.313	0.250	0.375	0.266	0.156	0.188	16	16	(¼x)	(⅛x)	(⅛x)	4	2	2	O=C(Cc1ccc(CCCCc2ccc(NS(=O)(=O)CCN3CCOCC3)cc2)cc1)NO [Example 51, N-hydroxy-2-(4-(4-(4-(2-morpholinoethylsulfona-mido)phenyl)butyl)phenyl)acetamide]
> 64	> 64	8 (≈ 16.4 µM)	> 64	> 64	> 64	> 0.563	> 0.625	> 0.500	> 0.516	> 0.531	> 0.313	> 16	> 16				16	16	8	CN1CCN(CCS(=O)(=O)Nc2ccc(CCCCc3ccc(CC(=O)NO)cc3)cc2)CC1 [Example 52, N-hydroxy-2-(4-(4-(4-(2-(4-methylpiperazin-1-yl)ethylsulfonamido)phenyl)butyl)phenyl)acetamide]
> 64	> 64	16 (≈ 33.6 µM)	32 (≈ 67.3 µM)	> 64	> 64	0.313	0.250	0.375	0.266	0.156	0.188	16	16	(¼x)	(⅛x)	(⅛x)	4	2	2	O=C(Cc1ccc(CCCCc2cccc(NS(=O)(=O)CCN3CCOCC3)c2)cc1)NO [Example 53, N-hydroxy-2-(4-(4-(3-(2-morpholinoethylsulfona-mido)phenyl)butyl)phenyl)acetamide]
> 64	> 64	16 (≈ 32.7 µM)	> 64	> 64	> 64	0.313	0.250	0.313	0.266	0.156	0.125	> 16	> 16				8	4	2	CN1CCN(CCS(=O)(=O)Nc2cccc(CCCCc3ccc(CC(=O)NO)cc3)c2)CC1 [Example 54, N-hydroxy-2-(4-(4-(3-(2-(4-methylpiperazin-1-yl)ethylsulfonamido)phenyl)butyl)phenyl)acetamide]
2 (≈ 6.72 µM)	4 (≈ 13.4 µM)	0.25 (≈ 0.841 µM)	0.5 (≈ 1.68 µM)	0.5 (≈ 1.68 µM)	1 (≈ 3.36 µM)	0.303	0.365	0.370	0.256	0.271	0.183	0.5	0.5	(¼x)	(¼x)	(⅛x)	0.12	0.12	0.06	CC(C(=O)NO)c1ccc(CCCCc2ccccc2)cc1 (stereo not shown) [Example 55, N-hydroxy-2-(4-(4-phenylbutyl)phenyl)propanamide]
> 2	> 2	0.25 (≈ 0.803 µM)	0.5 (≈ 1.61 µM)	> 2	> 2	0.563	0.625	0.490	0.516	0.531	0.303	0.5	0.5	(½x)	(½x)	(¼x)	0.25	0.25	0.12	CC(C)(C(=O)NO)c1ccc(CCCCc2ccccc2)cc1 [Example 56, N-hydroxy-2-methyl-2-(4-(4-phenylbutyl)phenyl)propanamide]
> 64	> 64	16 (≈ 53.4 µM)	> 64	> 64	> 64	0.563	0.625	0.500	0.516	0.531	0.313	> 16	> 16				16	16	8	O=C(Cc1ccc(CCC(O)Cc2ccccc2)cc1)NO (stereo not shown) [Example 57, N-hydroxy-2-(4-(3-hydroxy-4-phenylbutyl)phenyl)acetamide]
> 64	> 64	8 (≈ 25.5 µM)	64 (≈ 204 µM)	> 64	> 64	0.188	0.250	0.375	0.141	0.156	0.188	> 16	> 16				4	4	4	CC(C(=O)NO)c1ccc(CCC(O)Cc2ccccc2)cc1 (stereo not shown) [Example 58, N-hydroxy-2-(4-(3-hydroxy-4-phenylbutyl)phenyl)propanamide]
